Laboratory results from PubChem BioAssay AID179 (DTP/NCI, 2004).
The source made the active and inactive calls.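 The calls were made as follows: active = compounds giving half or more protection of infected cells from virus-caused growth loss, again on retest; inactive = the rest.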

System: CEM cells HIV-1 protection, formazan growth assay
Test: NCI AIDS Antiviral Assay
Conditions: for IC50: measured here: growth of uninfected CEM cells
Summary of the method: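 CEM (human) cells, HIV-1 infected vs uninfected, 5-point dosing, formazan growth read-out. Retest threshold 50% protection.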

| Compound | EC50 [µM] | IC50 [µM] | outcome |
| --- | --- | --- | --- |
| COc1ccc2c(c1)C(=O)C1CCC(=O)N1C2c1ccc2c(c1)OCO2 (centres undefined) | > 200 | 3.72 | – |
| O=C(CCc1ccc(O)c(O)c1)NCCc1ccccc1 | > 200 | 21.9 | – |
| CC(=O)OC1C[C@H]2C(OC(=O)c3ccccc3)C3C4(OC(C)=O)COC4C[C@H](OC(C)=O)[C@@]3(C)C(OC(C)=O)[C@H](OC(C)=O)C(=C1C)C2(C)C (some centres undefined) | > 35.5 | > 35.5 | – |
| O=C1NC(c2cccs2)N2C(=O)NC(c3cccs3)N12 (centres undefined) | > 200 | 145 | – |
| CC(=O)N(C(C)=O)c1ccc(-c2cccs2)oc1=O | > 200 | > 200 | – |
| COCCN(C(=O)c1ccccc1)C1CCC2(SCCS2)c2[nH]c3ccccc3c21 (centres undefined) | > 200 | 24 | – |
| COC(=O)C(=O)C(C(=O)C=C(C)C)C(=O)C(=O)Nc1cc(C(F)(F)F)ccc1Cl (centres undefined) | > 83.2 | > 83.2 | – |
| COC(O)C(=O)c1c2c(cc3c1CCC3)CCC2 (centres undefined) | > 200 | 174 | – |
| COc1ccc(CNc2nc3ccccc3nc2C(=O)O)cc1OC | > 200 | 95.5 | – |
| C/C=C(\C)c1cc(O)c(C)c2c1Oc1cc(O)c(Cl)c(C)c1C(=O)O2 | – | – | inactive |
| C=C=CP(=O)(c1ccccc1)c1ccccc1 | > 151 | 15.5 | – |
| O=C(NNC(=S)Nc1ccc(Cl)cc1)C12CC3CC(CC(C3)C1)C2 | > 200 | 6.61 | – |
| COc1cc(C[C@@H](C)N)cc(OC)c1 | > 200 | > 200 | – |
| CCCCNCCCNCCCNC(=O)c1csc(-c2csc(CCNC(=O)C(NC(=O)C(C)C(O)C(C)NC(=O)C(NC(=O)c3nc(C(CC(N)=O)NCC(N)C(N)=O)nc(N)c3C)C(OC3OC(CO)C(O)C(O)C3OC3OC(CO)C(O)C(OC(N)=O)C3O)c3cnc[nH]3)C(C)O)n2)n1 (centres undefined) | – | – | inactive |
| CC1=NNC(=O)C1C1C(=O)NN=C(c2c[nH]c3ccccc23)C1Br (centres undefined) | > 200 | 95.5 | – |
| O=C1CCCC1(CCSc1ccccc1)C(CCCl)Sc1ccccc1 (centres undefined) | > 8.91 | > 8.91 | – |
| COC(=O)c1cc2/c(=N/O)c3ccccc3sc2o1 | > 200 | > 200 | – |
| Nc1ncc2ncn(C3CCC(CO)O3)c2n1 (centres undefined) | > 200 | > 200 | – |
| CNC(=O)OCc1cc(C(=O)NCCCNCCCNC(=O)c2ccc([N+](=O)[O-])c(COC(=O)NC)c2)ccc1[N+](=O)[O-] | – | – | inactive |
| CCNC(=O)Sc1ccccc1C(=O)N[C@H](C)C(N)=O | 1.15 | 93.3 | – |
| O=C(CC1C(=O)Nc2ccccc2S1=O)Nc1ccc(Cl)cc1 (centres undefined) | – | – | inactive |
| COc1cc(C2=NC(C(C)C)CO2)c(OC)c(OC)c1OC (centres undefined) | > 43.7 | > 43.7 | – |

| Compound | EC50 [µM] | IC50 [µM] | outcome |
| --- | --- | --- | --- |
| Cc1ccc(C)c(NC(=O)C(=O)C(c2cnc3ccc([N+](=O)[O-])cc3n2)[N+](=O)[O-])c1 (centres undefined) | > 123 | > 123 | – |
| CN(C(=O)C12C3C4C1C1C2C3C41C(=O)O)C(C)(C)C (centres undefined) | – | – | inactive |
| CCOc1ccc(NC(=O)/C(CC(=O)c2c[n+](=O)c3ccccc3n2[O-])=N\OCCCc2ccccc2)cc1 | > 123 | > 123 | – |
| O=C(/N=C1/OC(CN2CCOCC2)CN1C(=O)Nc1ccccc1)Nc1ccccc1 (centres undefined) | > 200 | > 200 | – |
| CO/N=C1/c2sccc2[C@H](NC(=O)CNC(=O)OC(C)(C)C)[C@@H]1O | > 200 | > 200 | – |
| CCOC(=O)C1(C#N)C(C#N)(C#N)C1(C#N)C#N | > 200 | > 200 | – |
| CCCCCCCCCC[C@@H](OC(C)=O)[C@@H]1CC[C@@H]([C@@H]2CC[C@@H]([C@@H](O)CC#C/C=C/CCCCCCC[C@@]3(Sc4ccccc4)C[C@H](C)OC3=O)O2)O1 | > 200 | 182 | – |
| CCc1occc(=O)c1O | > 1780 | 339 | – |
| c1ccc2c(c1)c1ccccc1c1nc3c(nc21)CCCC3 | > 200 | > 200 | – |
| COc1cc2c(cc1OC)C(OC)N(C)c1c-2ccc2cc3c(cc12)OCO3 (centres undefined) | > 20 | 0.309 | – |
| Cn1cc(NC(=O)c2cc(NC(=O)CN=C(N)N)cn2C)cc1C(=O)NCCC(=N)N | > 200 | > 200 | – |
| O=C1CC(C(COCc2ccccc2)OCc2ccccc2)CC(=O)N1 (centres undefined) | > 200 | > 200 | – |
| O=c1c2ccccc2c2nc3ccccc3nc2n1C1CCCCC1 | – | – | inactive |
| O=C1/C(=N\N(C(=O)c2ccccc2)c2ccccc2)c2cccc3cccc1c23 | > 3.8 | > 3.8 | – |
| O=C(O)CCC(O)=C1S(=O)(=O)OCCOS1(=O)=O | > 4470 | 331 | – |
| NC1=NS(=O)(=O)N=C(N)C1=NNc1ccccc1 | > 933 | 141 | – |
| O=[N+]([O-])/C=C/c1cn(CCCCCCCCn2cc(/C=C/[N+](=O)[O-])c3ccccc32)c2ccccc12 | > 200 | 35.5 | – |
| O=C(CCCCCCCCc1ccc(O)cc1)c1c(O)cccc1O | – | – | inactive |
| CC1CCCCc2nc3c(c(=O)n21)CCCC3 (centres undefined) | > 562 | 347 | – |
| c1ccc(-c2nc3sc(-c4ccccc4)nc3s2)cc1 | > 200 | > 200 | – |
| CN(C)c1ccc(/C=N\N2C(=O)c3ccccc3C2=O)cc1 | > 123 | > 123 | – |
